Experimental data taken from BigSolDB 2.1.

CC(=O)S[C@@H]1CC2=CC(=O)CC[C@]2(C)[C@H]2CC[C@@]3(C)[C@@H](CC[C@@]34CCC(=O)O4)[C@H]12
Conditions	solubility (mole fraction)
in ethanol, 278.75 K	0.0017
in ethanol, 283.55 K	0.00197
in ethanol, 288.45 K	0.00238
in ethanol, 293.45 K	0.0031
in ethanol, 298.35 K	0.00394
in ethanol, 303.15 K	0.00491
in ethanol, 308.25 K	0.00606
in ethanol, 313.15 K	0.00771
in ethanol, 317.95 K	0.00975
in ethyl acetate, 278.85 K	0.0179
in ethyl acetate, 283.65 K	0.0198
in ethyl acetate, 288.55 K	0.0226
in ethyl acetate, 293.45 K	0.0246
in ethyl acetate, 298.3 K	0.0281
in ethyl acetate, 303.15 K	0.0314
in ethyl acetate, 308.1 K	0.0359
in ethyl acetate, 312.95 K	0.0412
in ethyl acetate, 317.75 K	0.0456
in isopropanol, 278.45 K	0.000994
in isopropanol, 283.55 K	0.00128
in isopropanol, 288.4 K	0.00168
in isopropanol, 293.25 K	0.00208
in isopropanol, 298.2 K	0.00265
in isopropanol, 303.05 K	0.00343
in isopropanol, 307.95 K	0.00445
in isopropanol, 312.9 K	0.00572
in isopropanol, 317.55 K	0.00731
in methanol, 278.85 K	0.000202
in methanol, 283.65 K	0.000267
in methanol, 288.55 K	0.000356
in methanol, 293.45 K	0.00041
in methanol, 298.3 K	0.000612
in methanol, 303.15 K	0.000813
in methanol, 308.1 K	0.00104
in methanol, 312.95 K	0.00139
in methanol, 317.75 K	0.00182
in n-butanol, 278.95 K	0.00194
in n-butanol, 283.65 K	0.00237
in n-butanol, 288.55 K	0.00309
in n-butanol, 293.45 K	0.00396
in n-butanol, 298.25 K	0.00469
in n-butanol, 303.05 K	0.00581
in n-butanol, 308.15 K	0.00732
in n-butanol, 312.95 K	0.00898
in n-butanol, 317.65 K	0.011
in n-propanol, 278.4 K	0.00228
in n-propanol, 283.65 K	0.0026
in n-propanol, 288.35 K	0.00326
in n-propanol, 293.25 K	0.00395
in n-propanol, 298.15 K	0.00488
in n-propanol, 303.05 K	0.00606
in n-propanol, 307.95 K	0.00756
in n-propanol, 312.9 K	0.00957
in n-propanol, 318.35 K	0.0121
